Target: T1, BaF3 (EGFR Del19/C797S) (Homo sapiens, UniProt P00533, C797S, cells depend on it, form not given)
T1 construct: BaF3 (EGFR Del19/C797S)|DC|RPMI1640 + 10% FBS
Assay: Cell proliferation IC50 assay (Cell Titer GLO), BaF3 DC cells
Type: cell-based, mouse
Conditions: Table 6, 72 h
Experimental: (§1) IC50 of compounds in the present invention was determined by Cell Titer GLO reagent from Promega. The procedures are as follows:
(§2) Tumor cells were cultured in specified medium in an incubator at 37° C. and 5% CO2. The cells were passaged periodically. Cells at the logarithmic growth phase were collected for plating at a density of 2000-4000 cells/well. The next day, the compounds of the present invention were serially diluted and added to the cells, with DMSO being the negative control and the culture media without cells being the blank control. The plate was incubated in the incubator for 72 h. The cell viability assay was performed by adding the detection reagents to the cell culture media according to Cell Titer GLO reagent instructions and detecting luminescent signals on an EnVision microplate reader (PerkinElmer).
(§3) Inhibition of cell growth by the compounds of the present invention was plotted by Prism Graphpad software for statistically calculating the IC50 of the compound of the present invention.

T1 sequence (P00533 with tags, fused parts or gaps DEL746-750/C797S, form open): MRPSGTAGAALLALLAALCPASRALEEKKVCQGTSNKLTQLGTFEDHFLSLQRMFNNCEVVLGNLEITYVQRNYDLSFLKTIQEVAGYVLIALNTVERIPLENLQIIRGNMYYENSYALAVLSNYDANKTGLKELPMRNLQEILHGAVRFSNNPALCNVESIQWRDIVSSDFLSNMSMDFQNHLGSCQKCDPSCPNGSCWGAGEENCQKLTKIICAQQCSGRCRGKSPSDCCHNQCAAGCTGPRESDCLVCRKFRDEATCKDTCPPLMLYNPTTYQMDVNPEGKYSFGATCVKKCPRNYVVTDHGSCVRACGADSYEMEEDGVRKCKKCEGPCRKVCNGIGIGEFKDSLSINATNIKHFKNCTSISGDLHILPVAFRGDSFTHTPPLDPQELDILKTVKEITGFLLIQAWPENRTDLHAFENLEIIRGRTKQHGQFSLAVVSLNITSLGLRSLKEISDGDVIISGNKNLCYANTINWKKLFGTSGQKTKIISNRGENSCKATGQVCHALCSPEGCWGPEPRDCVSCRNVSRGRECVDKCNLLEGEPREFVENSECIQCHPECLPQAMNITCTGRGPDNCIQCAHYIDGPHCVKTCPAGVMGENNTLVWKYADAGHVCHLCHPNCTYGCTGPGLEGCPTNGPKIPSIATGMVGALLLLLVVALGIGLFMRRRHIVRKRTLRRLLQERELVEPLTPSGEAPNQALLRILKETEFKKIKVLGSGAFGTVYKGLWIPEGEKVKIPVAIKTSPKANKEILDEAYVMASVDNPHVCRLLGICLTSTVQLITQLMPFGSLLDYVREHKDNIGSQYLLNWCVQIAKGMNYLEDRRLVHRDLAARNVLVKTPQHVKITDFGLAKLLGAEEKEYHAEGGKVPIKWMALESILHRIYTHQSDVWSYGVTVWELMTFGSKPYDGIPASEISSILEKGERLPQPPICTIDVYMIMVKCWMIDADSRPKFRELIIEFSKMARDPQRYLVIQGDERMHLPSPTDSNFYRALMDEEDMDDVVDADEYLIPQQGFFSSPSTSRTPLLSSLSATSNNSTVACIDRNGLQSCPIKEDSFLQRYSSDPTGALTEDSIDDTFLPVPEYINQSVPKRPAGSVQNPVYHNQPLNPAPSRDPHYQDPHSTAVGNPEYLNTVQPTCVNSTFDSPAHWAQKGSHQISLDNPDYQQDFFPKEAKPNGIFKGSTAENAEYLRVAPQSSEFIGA

Compound | IC50 [nM]
CCc1cc(Nc2ncc(-c3cn(C)nn3)c(Nc3ccccc3P(C)(C)=O)n2)c(OC)cc1N1CCC(N2CCN(CCOc3ccc4c(c3)CN(C3CCC(=O)NC3=O)C4=O)CC2)CC1 (stereo not drawn) [Example E193] | 14.9
CCc1cc(Nc2nc(Nc3ccccc3P(C)(C)=O)c3cc[nH]c3n2)c(OC)cc1N1CCC(N2CCN(CCCCOc3cc(F)cc4c3CN(C3CCC(=O)NC3=O)C4=O)CC2)CC1 (stereo not drawn) [Example E141] | 14.7
CCc1cc(Nc2ncc(Cl)c(Nc3ccccc3P(C)(C)=O)n2)c(OC)cc1N1CCC(N2Cc3ccc(Sc4cccc5c4CN(C4CCC(=O)NC4=O)C5=O)cc3C2)CC1 (stereo not drawn) [Example E173] | 21.7
CCc1cc(Nc2ncc(Cl)c(Nc3ccccc3P(C)(C)=O)n2)c(OC)cc1N1CCC(N2CCN([C@H]3C[C@H](Oc4ccc5c(c4)CN(C4CCC(=O)NC4=O)C5=O)C3)CC2)CC1 (stereo partly drawn) [Example E191] | 3.1
CCc1cc(Nc2ncc(-c3cnn(C)c3)c(Nc3ccccc3P(C)(C)=O)n2)c(OC)cc1N1CCC(N2CCN([C@H]3C[C@H](Oc4cccc5c4CN(C4CCC(=O)NC4=O)C5=O)C3)CC2)CC1 (stereo partly drawn) [Example E70] | 0.7
CCc1cc(Nc2ncc(Cl)c(Nc3ccccc3P(C)(C)=O)n2)cc(C#N)c1N1CCC(N2CCN(CCC#Cc3cccc4c3CN(C3CCC(=O)NC3=O)C4=O)CC2)CC1 (stereo not drawn) [Example E94] | 40.2
CCc1cc(Nc2ncc(-n3cncn3)c(Nc3ccccc3P(C)(C)=O)n2)c(OC)cc1N1CCC(N2CCN(CCOc3cccc4c3CN(C3CCC(=O)NC3=O)C4=O)CC2)CC1 (stereo not drawn) [Example E171] | 6.3
CCc1cc(Nc2ncc(Cl)c(Nc3ccccc3P(C)(C)=O)n2)c(OC)cc1N1CCC(N2CCN(CCOc3cccc4c3CN(C3CCC(=O)NC3=O)C4=O)CC2=O)CC1 (stereo not drawn) [Example E118] | 6.3
CCc1cc(Nc2nc(Nc3ccccc3P(C)(C)=O)c3cn[nH]c3n2)c(OC)cc1N1CCC(N2CCN(CCOc3cc4c(cc3F)C(=O)N(C3CCC(=O)NC3=O)C4)CC2)CC1 (stereo not drawn) [Example E208] | 16.1
CCc1cc(Nc2ncc(Cl)c(Nc3ccccc3P(C)(C)=O)n2)cc(C(N)=O)c1N1CCC(N2CCN(CCCCOc3cccc4c3CN(C3CCC(=O)NC3=O)C4=O)CC2)CC1 (stereo not drawn) [Example E139] | 60.9
CCc1cc(Nc2ncc(-n3cnc(C)c3)c(Nc3ccccc3P(C)(C)=O)n2)c(OC)cc1N1CCC(N2CCN(CCOc3ccc4c(c3)CN(C3CCC(=O)NC3=O)C4=O)CC2)CC1 (stereo not drawn) [Example E214] | 3.4
CCc1cc(Nc2ncc(Cl)c(Nc3ccccc3P(C)(C)=O)n2)c(OC)cc1N1CCC(N2CCC3(CC(Oc4ccc5c(c4)CN(C4CCC(=O)NC4=O)C5=O)C3)C2)CC1 (stereo not drawn) [Example E187] | 19.5

Tested on: A431
Assay: Cell proliferation IC50 assay (Cell Titer GLO), A431 cells
Type: cell-based
Conditions: Homo sapiens, A-431; Table 6; A431, 72 h; read-out: A431 IC50
Experimental: as §1, §2, §3

Compound | IC50 [nM]
CCc1cc(Nc2ncc(-c3cn(C)nn3)c(Nc3ccccc3P(C)(C)=O)n2)c(OC)cc1N1CCC(N2CCN(CCOc3ccc4c(c3)CN(C3CCC(=O)NC3=O)C4=O)CC2)CC1 (stereo not drawn) [Example E193] | > 4000
CCc1cc(Nc2nc(Nc3ccccc3P(C)(C)=O)c3cc[nH]c3n2)c(OC)cc1N1CCC(N2CCN(CCCCOc3cc(F)cc4c3CN(C3CCC(=O)NC3=O)C4=O)CC2)CC1 (stereo not drawn) [Example E141] | > 4000
CCc1cc(Nc2ncc(Cl)c(Nc3ccccc3P(C)(C)=O)n2)c(OC)cc1N1CCC(N2Cc3ccc(Sc4cccc5c4CN(C4CCC(=O)NC4=O)C5=O)cc3C2)CC1 (stereo not drawn) [Example E173] | > 4000
CCc1cc(Nc2ncc(Cl)c(Nc3ccccc3P(C)(C)=O)n2)c(OC)cc1N1CCC(N2CCN([C@H]3C[C@H](Oc4ccc5c(c4)CN(C4CCC(=O)NC4=O)C5=O)C3)CC2)CC1 (stereo partly drawn) [Example E191] | 1150
CCc1cc(Nc2ncc(-c3cnn(C)c3)c(Nc3ccccc3P(C)(C)=O)n2)c(OC)cc1N1CCC(N2CCN([C@H]3C[C@H](Oc4cccc5c4CN(C4CCC(=O)NC4=O)C5=O)C3)CC2)CC1 (stereo partly drawn) [Example E70] | 1250
CCc1cc(Nc2ncc(Cl)c(Nc3ccccc3P(C)(C)=O)n2)cc(C#N)c1N1CCC(N2CCN(CCC#Cc3cccc4c3CN(C3CCC(=O)NC3=O)C4=O)CC2)CC1 (stereo not drawn) [Example E94] | 524
CCc1cc(Nc2ncc(-n3cncn3)c(Nc3ccccc3P(C)(C)=O)n2)c(OC)cc1N1CCC(N2CCN(CCOc3cccc4c3CN(C3CCC(=O)NC3=O)C4=O)CC2)CC1 (stereo not drawn) [Example E171] | > 4000
CCc1cc(Nc2ncc(Cl)c(Nc3ccccc3P(C)(C)=O)n2)c(OC)cc1N1CCC(N2CCN(CCOc3cccc4c3CN(C3CCC(=O)NC3=O)C4=O)CC2=O)CC1 (stereo not drawn) [Example E118] | 1340
CCc1cc(Nc2nc(Nc3ccccc3P(C)(C)=O)c3cn[nH]c3n2)c(OC)cc1N1CCC(N2CCN(CCOc3cc4c(cc3F)C(=O)N(C3CCC(=O)NC3=O)C4)CC2)CC1 (stereo not drawn) [Example E208] | 1350
CCc1cc(Nc2ncc(Cl)c(Nc3ccccc3P(C)(C)=O)n2)cc(C(N)=O)c1N1CCC(N2CCN(CCCCOc3cccc4c3CN(C3CCC(=O)NC3=O)C4=O)CC2)CC1 (stereo not drawn) [Example E139] | 963
CCc1cc(Nc2ncc(-n3cnc(C)c3)c(Nc3ccccc3P(C)(C)=O)n2)c(OC)cc1N1CCC(N2CCN(CCOc3ccc4c(c3)CN(C3CCC(=O)NC3=O)C4=O)CC2)CC1 (stereo not drawn) [Example E214] | 1460
CCc1cc(Nc2ncc(Cl)c(Nc3ccccc3P(C)(C)=O)n2)c(OC)cc1N1CCC(N2CCC3(CC(Oc4ccc5c(c4)CN(C4CCC(=O)NC4=O)C5=O)C3)C2)CC1 (stereo not drawn) [Example E187] | 1460

Tested on: BaF3 (EGFR WT)
Assay: Cell proliferation IC50 assay (Cell Titer GLO), BaF3 WT cells
Type: cell-based
Conditions: Mus musculus, Ba/F3 EGFR, Table 6, 10 ng/ml EGF, 72 h
Experimental: as §1, §2, §3

Compound | IC50 [nM]
CCc1cc(Nc2ncc(-c3cn(C)nn3)c(Nc3ccccc3P(C)(C)=O)n2)c(OC)cc1N1CCC(N2CCN(CCOc3ccc4c(c3)CN(C3CCC(=O)NC3=O)C4=O)CC2)CC1 (stereo not drawn) [Example E193] | 1320
CCc1cc(Nc2nc(Nc3ccccc3P(C)(C)=O)c3cc[nH]c3n2)c(OC)cc1N1CCC(N2CCN(CCCCOc3cc(F)cc4c3CN(C3CCC(=O)NC3=O)C4=O)CC2)CC1 (stereo not drawn) [Example E141] | > 4000
CCc1cc(Nc2ncc(Cl)c(Nc3ccccc3P(C)(C)=O)n2)c(OC)cc1N1CCC(N2Cc3ccc(Sc4cccc5c4CN(C4CCC(=O)NC4=O)C5=O)cc3C2)CC1 (stereo not drawn) [Example E173] | 1530
CCc1cc(Nc2ncc(Cl)c(Nc3ccccc3P(C)(C)=O)n2)c(OC)cc1N1CCC(N2CCN([C@H]3C[C@H](Oc4ccc5c(c4)CN(C4CCC(=O)NC4=O)C5=O)C3)CC2)CC1 (stereo partly drawn) [Example E191] | 947
CCc1cc(Nc2ncc(-c3cnn(C)c3)c(Nc3ccccc3P(C)(C)=O)n2)c(OC)cc1N1CCC(N2CCN([C@H]3C[C@H](Oc4cccc5c4CN(C4CCC(=O)NC4=O)C5=O)C3)CC2)CC1 (stereo partly drawn) [Example E70] | 267
CCc1cc(Nc2ncc(Cl)c(Nc3ccccc3P(C)(C)=O)n2)cc(C#N)c1N1CCC(N2CCN(CCC#Cc3cccc4c3CN(C3CCC(=O)NC3=O)C4=O)CC2)CC1 (stereo not drawn) [Example E94] | 50.6
CCc1cc(Nc2ncc(-n3cncn3)c(Nc3ccccc3P(C)(C)=O)n2)c(OC)cc1N1CCC(N2CCN(CCOc3cccc4c3CN(C3CCC(=O)NC3=O)C4=O)CC2)CC1 (stereo not drawn) [Example E171] | > 4000
CCc1cc(Nc2ncc(Cl)c(Nc3ccccc3P(C)(C)=O)n2)c(OC)cc1N1CCC(N2CCN(CCOc3cccc4c3CN(C3CCC(=O)NC3=O)C4=O)CC2=O)CC1 (stereo not drawn) [Example E118] | > 4000
CCc1cc(Nc2nc(Nc3ccccc3P(C)(C)=O)c3cn[nH]c3n2)c(OC)cc1N1CCC(N2CCN(CCOc3cc4c(cc3F)C(=O)N(C3CCC(=O)NC3=O)C4)CC2)CC1 (stereo not drawn) [Example E208] | 1010
CCc1cc(Nc2ncc(Cl)c(Nc3ccccc3P(C)(C)=O)n2)cc(C(N)=O)c1N1CCC(N2CCN(CCCCOc3cccc4c3CN(C3CCC(=O)NC3=O)C4=O)CC2)CC1 (stereo not drawn) [Example E139] | 554
CCc1cc(Nc2ncc(-n3cnc(C)c3)c(Nc3ccccc3P(C)(C)=O)n2)c(OC)cc1N1CCC(N2CCN(CCOc3ccc4c(c3)CN(C3CCC(=O)NC3=O)C4=O)CC2)CC1 (stereo not drawn) [Example E214] | 616
CCc1cc(Nc2ncc(Cl)c(Nc3ccccc3P(C)(C)=O)n2)c(OC)cc1N1CCC(N2CCC3(CC(Oc4ccc5c(c4)CN(C4CCC(=O)NC4=O)C5=O)C3)C2)CC1 (stereo not drawn) [Example E187] | 815

Tested on: BaF3 (EGFR L858R/T790M/C797S)
Assay: Cell proliferation IC50 assay (Cell Titer GLO), BaF3 LTC cells
Type: cell-based
Conditions: Mus musculus, Ba/F3 EGFR, Table 6, 72 h
Experimental: as §1, §2, §3

Compound | IC50 [nM]
CCc1cc(Nc2ncc(-c3cn(C)nn3)c(Nc3ccccc3P(C)(C)=O)n2)c(OC)cc1N1CCC(N2CCN(CCOc3ccc4c(c3)CN(C3CCC(=O)NC3=O)C4=O)CC2)CC1 (stereo not drawn) [Example E193] | > 4000
CCc1cc(Nc2nc(Nc3ccccc3P(C)(C)=O)c3cc[nH]c3n2)c(OC)cc1N1CCC(N2CCN(CCCCOc3cc(F)cc4c3CN(C3CCC(=O)NC3=O)C4=O)CC2)CC1 (stereo not drawn) [Example E141] | 50.3
CCc1cc(Nc2ncc(Cl)c(Nc3ccccc3P(C)(C)=O)n2)c(OC)cc1N1CCC(N2Cc3ccc(Sc4cccc5c4CN(C4CCC(=O)NC4=O)C5=O)cc3C2)CC1 (stereo not drawn) [Example E173] | 181
CCc1cc(Nc2ncc(Cl)c(Nc3ccccc3P(C)(C)=O)n2)c(OC)cc1N1CCC(N2CCN([C@H]3C[C@H](Oc4ccc5c(c4)CN(C4CCC(=O)NC4=O)C5=O)C3)CC2)CC1 (stereo partly drawn) [Example E191] | 69.2
CCc1cc(Nc2ncc(-c3cnn(C)c3)c(Nc3ccccc3P(C)(C)=O)n2)c(OC)cc1N1CCC(N2CCN([C@H]3C[C@H](Oc4cccc5c4CN(C4CCC(=O)NC4=O)C5=O)C3)CC2)CC1 (stereo partly drawn) [Example E70] | > 4000
CCc1cc(Nc2ncc(Cl)c(Nc3ccccc3P(C)(C)=O)n2)cc(C#N)c1N1CCC(N2CCN(CCC#Cc3cccc4c3CN(C3CCC(=O)NC3=O)C4=O)CC2)CC1 (stereo not drawn) [Example E94] | 57
CCc1cc(Nc2ncc(-n3cncn3)c(Nc3ccccc3P(C)(C)=O)n2)c(OC)cc1N1CCC(N2CCN(CCOc3cccc4c3CN(C3CCC(=O)NC3=O)C4=O)CC2)CC1 (stereo not drawn) [Example E171] | > 4000
CCc1cc(Nc2ncc(Cl)c(Nc3ccccc3P(C)(C)=O)n2)c(OC)cc1N1CCC(N2CCN(CCOc3cccc4c3CN(C3CCC(=O)NC3=O)C4=O)CC2=O)CC1 (stereo not drawn) [Example E118] | 112
CCc1cc(Nc2nc(Nc3ccccc3P(C)(C)=O)c3cn[nH]c3n2)c(OC)cc1N1CCC(N2CCN(CCOc3cc4c(cc3F)C(=O)N(C3CCC(=O)NC3=O)C4)CC2)CC1 (stereo not drawn) [Example E208] | 532
CCc1cc(Nc2ncc(Cl)c(Nc3ccccc3P(C)(C)=O)n2)cc(C(N)=O)c1N1CCC(N2CCN(CCCCOc3cccc4c3CN(C3CCC(=O)NC3=O)C4=O)CC2)CC1 (stereo not drawn) [Example E139] | 694
CCc1cc(Nc2ncc(-n3cnc(C)c3)c(Nc3ccccc3P(C)(C)=O)n2)c(OC)cc1N1CCC(N2CCN(CCOc3ccc4c(c3)CN(C3CCC(=O)NC3=O)C4=O)CC2)CC1 (stereo not drawn) [Example E214] | > 4000
CCc1cc(Nc2ncc(Cl)c(Nc3ccccc3P(C)(C)=O)n2)c(OC)cc1N1CCC(N2CCC3(CC(Oc4ccc5c(c4)CN(C4CCC(=O)NC4=O)C5=O)C3)C2)CC1 (stereo not drawn) [Example E187] | 50.3
